# Source: patent publication US9776979B2, “EBI2 modulators” (Sanford-Burnham Medical Research Institute, priority 2013, dated 2017)
# Molecular target: EBI2 (Homo sapiens, UniProt P32249)
# Experiment: Cell-based luminescent assay (EBI2 modulation)
# Conditions: cell-based luminescence; 7a,25-OHC final assay concentration 80 nM; 60 minutes incubation; read-out: IC50
# Outline: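 Cells plated overnight at 37° C, then exposed to compound at 4-5 uM final with 80 nM 7a,25-OHC agonist for 60 min at 37° C. Luminescence read after 60 min detection at 25° C in the dark; values normalized to neutral and stimulator controls and plate-pattern corrected.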
# Sequence of EBI2 (P32249 whole entry): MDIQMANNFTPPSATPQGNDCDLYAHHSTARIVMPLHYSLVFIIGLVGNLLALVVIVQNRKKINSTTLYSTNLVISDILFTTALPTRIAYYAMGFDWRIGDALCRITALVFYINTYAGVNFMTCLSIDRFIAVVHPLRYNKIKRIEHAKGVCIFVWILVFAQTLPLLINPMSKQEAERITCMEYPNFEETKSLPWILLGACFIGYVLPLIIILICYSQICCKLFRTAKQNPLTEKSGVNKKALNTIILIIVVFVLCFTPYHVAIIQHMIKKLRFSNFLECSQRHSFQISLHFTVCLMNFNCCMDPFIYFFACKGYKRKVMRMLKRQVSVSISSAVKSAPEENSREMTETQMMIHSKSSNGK
row,SMILES,IC50 [nM]
1,"O=C(c1ccc(C(F)(F)F)cc1)N1CCN(C(=O)c2cc3cc(Br)ccc3[nH]2)CC1 [Compound C140, 5-bromoindol-2-yl 4-{[4-(trifluoromethyl)phenyl]carbonyl}piperazinyl ketone]",< 100
2,"O=C(C#Cc1cccc(Cl)c1Cl)N1CCN(Cc2ccc(F)cc2C(F)(F)F)CC1 [Compound C141, 3-(2,3-dichlorophenyl)-1-(4-{[4-fluoro-2-(trifluoromethyl)phenyl]methyl}piperazinyl)prop-2-yn-1-one]",< 100
3,"O=C(c1cc2cc(C(F)(F)F)ccc2s1)N1CCN(C(c2ccccc2)c2ccccc2)CC1 [Compound C142, 4-(diphenylmethyl)piperazinyl 5-(trifluoromethyl)benzo[b]thiophen-2-yl ketone]",< 100
4,"CC(C)(C)c1ccc(CN2CCN(C(=O)/C=C/c3ccc(Br)cc3)CC2)cc1 [Compound C144, (2E)-1-(4-{[4-(tert-butyl)phenyl]methyl}piperazinyl)-3-(4-bromophenyl)prop-2-en-1-one]",< 100
5,"CCC(=O)N1CCN(C(=O)/C=C/c2ccc(Br)cc2)CC1 [Compound C145, (2E)-3-(4-bromophenyl)-1-(4-propanoylpiperazinyl)prop-2-en-1-one]",< 100
6,"COc1ccc(/C=C/C(=O)N2CCN(S(=O)(=O)c3ccc(Br)cc3)CC2)cc1 [Compound C146, (2E)-1-{4-[(4-bromophenyl)sulfonyl]piperazinyl}-3-(4-methoxyphenyl)prop-2-en-1-one]",< 100
7,O=C(/C=C/c1cc(F)c(F)c(F)c1)N1CCN(C(c2ccccc2)c2ccccc2)CC1 [Compound C147],< 100
8,"O=C(C#Cc1ccc(Br)cc1)N1CCN(C(=O)c2ccc(-c3nnn[nH]3)cc2)CC1 [Compound C149, 3-(4-bromophenyl)-1-{4-[(4-(5H-1,2,3,4-tetraazol-5-yl)phenyl)carbonyl]piperazinyl}prop-2-yn-1-one]",< 100
9,"COc1ccc(C(=O)N2CCN(C(=O)c3cc4ccc(Cl)cc4[nH]3)CC2)cc1 [Compound C151, 6-chloroindol-2-yl 4-[(4-methoxyphenyl)carbonyl]piperazinyl ketone]",< 100
10,"O=C(/C=C/c1ccc(Br)cc1)N1CCN(C(=O)c2ccc(-c3nnn[nH]3)cc2)CC1 [Compound C152, (2E)-3-(4-bromophenyl)-1-{4-[(4-(1H-1,2,3,4-tetraazol-5-yl)phenyl)carbonyl]piperazinyl}prop-2-en-1-one]",< 100
11,"O=C(/C=C/c1ccc(Br)cc1)N1CCN(C(=O)c2ccc(B(O)O)cc2)CC1 [Compound C153, (E)-(4-(4-(3-(4-bromophenyl)acryloyl)piperazine-1-carbonyl)phenyl)boronic acid]",< 100
12,"O=C(C=C(Br)c1ccc(Br)cc1)N1CCN(C(c2ccccc2)c2ccccc2)CC1 [Compound C155, 1-[4-(diphenylmethyl)piperazinyl]-3-bromo-3-(4-bromophenyl)prop-2-en-1-one]",< 100
13,"O=C(c1cc2cc(F)ccc2s1)N1CCN(C(c2ccccc2)c2ccccc2)CC1 [Compound C156, 4-(diphenylmethyl)piperazinyl 5-fluorobenzo[b]thiophen-2-yl ketone]",< 100
14,"O=C(C#Cc1cccc(Cl)c1)N1CCN(C(=O)c2ccc(F)cc2C(F)(F)F)CC1 [Compound C157, 3-(3-chlorophenyl)-1-(4-{[4-fluoro-2-(trifluoromethyl)phenyl]carbonyl}piperazinyl)prop-2-yn-1-one]",< 100
15,"Cc1ccc2[nH]c(C(=S)N3CCN(C(c4ccccc4)c4ccccc4)CC3)cc2c1 [Compound C158, [4-(diphenylmethyl)piperazinyl](5-methylindol-2-yl)methane-1-thione]",< 100
16,"O=C(C#Cc1ccc(F)cc1)N1CCN(C(c2ccccc2)c2ccccc2)CC1 [Compound C159, 1-[4-(diphenylmethyl)piperazinyl]-3-(4-fluorophenyl)prop-2-yn-1-one]",< 100
17,"O=C(C#Cc1ccc(Br)cc1)N1CCN(C(=O)c2ccc(B(O)O)cc2)CC1 [Compound C160, 4-(4-(3-(4-bromophenyl)propioloyl)piperazine-1-carbonyl)phenylboronic acid]",< 100
18,"O=C(/C=C/c1ccccc1)N1CCN(Cc2ccc([N+](=O)[O-])cc2)CC1 [Compound C161, (2E)-1-{4-[(4-nitrophenyl)methyl]piperazinyl}-3-phenylprop-2-en-1-one]",< 100
19,"Cc1ccc2[nH]c(C(=O)NC3CCN(C(c4ccccc4)c4ccccc4)CC3)cc2c1 [Compound C162, N-[1-(diphenylmethyl)(4-piperidyl)](5-methylindol-2-yl)carboxamide]",500 to 5000
20,"O=C(c1cc[nH]c1)N1CCN(C(=O)c2cc3cc(Cl)ccc3[nH]2)CC1 [Compound C163, 5-chloroindol-2-yl 4-(pyrrol-3-ylcarbonyl)piperazinyl ketone]",500 to 5000
21,"O=C(c1ccc(Br)cc1)N1CCN(Cc2ccc(F)cc2C(F)(F)F)CC1 [Compound C164, 4-bromophenyl 4-{[4-fluoro-2-(trifluoromethyl)phenyl]methyl}piperazinyl ketone]",500 to 5000

row,SMILES,IC50 [nM]
1,"O=C(c1ccc(Br)cc1)N1CCN(Cc2ccc(F)cc2)CC1 [Compound C165, 4-bromophenyl 4-[(4-fluorophenyl)methyl]piperazinyl ketone]",500 to 5000
2,"O=C(C#Cc1ccc(F)cc1F)N1CCN(C(=O)c2ccc(C(F)(F)F)cc2)CC1 [Compound C166, 3-(2,4-difluorophenyl)-1-(4-{[4-(trifluoromethyl)phenyl]carbonyl}piperazinyl)prop-2-yn-1-one]",500 to 5000
3,"O=C(C=Cc1ccc2c(c1)OCO2)N1CCN(Cc2ccc(C(F)(F)F)cc2)CC1 [Compound C167, 3-(2H-benzo[3,4-d]1,3-dioxolan-5-yl)-1-(4-{[4-(trifluoromethyl)phenyl]methyl}piperazinyl)prop-2-en-1-one]",500 to 5000
4,"O=C(c1nc2ccccc2s1)N1CCN(C(c2ccccc2)c2ccccc2)CC1 [Compound C168, benzothiazol-2-yl 4-(diphenylmethyl)piperazinyl ketone]",500 to 5000
5,"O=C(C#Cc1ccccc1C(F)(F)F)N1CCN(C(=O)c2ccc(C(F)(F)F)cc2)CC1 [Compound C169, 3-[2-(trifluoromethyl)phenyl]-1-(4-{[4-(trifluoromethyl)phenyl]carbonyl}piperazinyl)prop-2-yn-1-one]",500 to 5000
6,"O=C(C#Cc1ccc(Cl)c(Cl)c1)N1CCN(Cc2ccc(C(F)(F)F)cc2)CC1 [Compound C171, 3-(3,4-dichlorophenyl)-1-(4-{[4-(trifluoromethyl)phenyl]methyl}piperazinyl)prop-2-yn-1-one]",500 to 5000
7,"Cn1c(C(=O)N2CCN(C(c3ccccc3)c3ccccc3)CC2)cc2ccsc21 [Compound C173, 4-(diphenylmethyl)piperazinyl 6-methylthiopheno[3,2-d]pyrrol-5-yl ketone]",500 to 5000
8,"O=C(/C=C/c1cc(Br)ccc1F)N1CCN(S(=O)(=O)c2ccc(Br)cc2)CC1 [Compound C174, (2E)-3-(5-bromo-2-fluorophenyl)-1-{4-[(4-bromophenyl)sulfonyl]piperazinyl}prop-2-en-1-one]",500 to 5000
9,"O=C(c1cnc2ccccc2c1)N1CCN(Cc2ccc(Cl)cc2)CC1 [Compound C175, 4-[(4-chlorophenyl)methyl]piperazinyl 3-quinolyl ketone]",500 to 5000
10,"O=C(O)c1ccc(CN2CCN(C(=O)c3cc4cc(Cl)ccc4[nH]3)CC2)cc1 [Compound C177, 4-({4-[(5-chloroindol-2-yl)carbonyl]piperazinyl}methyl)benzoic acid]",500 to 5000
11,"O=C(c1cc2cccc([N+](=O)[O-])c2[nH]1)N1CCN(C(c2ccccc2)c2ccccc2)CC1 [Compound C178, 4-(diphenylmethyl)piperazinyl 7-nitroindol-2-yl ketone]",500 to 5000
12,"O=C(C#Cc1ccc(F)cc1)N1CCN(Cc2ccc(F)cc2C(F)(F)F)CC1 [Compound C179, 3-(4-fluorophenyl)-1-(4-{[4-fluoro-2-(trifluoromethyl)phenyl]methyl}piperazinyl)prop-2-yn-1-one]",500 to 5000
13,"O=C(c1cc2ccc(Br)cc2[nH]1)N1CCN(Cc2ccc(Br)cc2)CC1 [Compound C180, 6-bromoindol-2-yl 4-[(4-bromophenyl)methyl]piperazinyl ketone]",500 to 5000
14,"O=C(Nc1ccc(F)cc1)c1ccc(CN2CCN(C(=O)c3cc4cc(Cl)ccc4[nH]3)CC2)cc1 [Compound C181, [4-({4-[(5-chloroindol-2-yl)carbonyl]piperazinyl}methyl)phenyl]-N-(4-fluorophenyl)carboxamide]",500 to 5000
15,"O=C(c1cc2cc(Cl)ccc2[nH]1)N1CCN(c2ccccn2)CC1 [Compound C182, 5-chloroindol-2-yl 4-(2-pyridyl)piperazinyl ketone]",500 to 5000
16,"O=C(c1ccc2nc(C(F)(F)F)[nH]c2c1)N1CCN(C(=O)c2cc3cc(Cl)ccc3[nH]2)CC1 [Compound C183, 5-chloroindol-2-yl 4-{[2-(trifluoromethyl)benzimidazol-5-yl]carbonyl}piperazinyl ketone]",500 to 5000
17,"O=C(NC1CCN(C(=O)c2cc3cc(Cl)ccc3[nH]2)CC1)c1ccc(Cl)cc1 [Compound C184, N-{1-[(5-chloroindol-2-yl)carbonyl](4-piperidyl)}(4-chlorophenyl)carboxamide]",500 to 5000
18,"Cc1c(C(=O)N2CCN(C(c3ccccc3)c3ccccc3)CC2)sc2ccccc12 [Compound C185, 4-(diphenylmethyl)piperazinyl 3-methylbenzo[b]thiophen-2-yl ketone]",500 to 5000
19,"O=C(C=Cc1ccc2c(c1)OCO2)N1CCN(Cc2ccc(F)cc2C(F)(F)F)CC1 [Compound C186, 3-(2H-benzo[3,4-d]1,3-dioxolan-5-yl)-1-(4-{[4-fluoro-2-(trifluoromethyl)phenyl]methyl}piperazinyl)prop-2-en-1-one]",500 to 5000
20,"O=C(Nc1ccc(F)cc1)c1cccc(CN2CCN(C(=O)c3cc4cc(Cl)ccc4[nH]3)CC2)c1 [Compound C187, [3-({4-[(5-chloroindol-2-yl)carbonyl]piperazinyl}methyl)phenyl]-N-(4-fluorophenyl)carboxamide]",500 to 5000
